Source: patent US7618975B2, “4-arylamino-quinazolines and analogs as activators of caspases and inducers of apoptosis and the use thereof” (Myriad Pharmaceuticals, Inc., priority 2003, dated 2009)

Tested on: T-47D cells
Assay: Caspase cascade activation (N-(Ac-DEVD)-N′-ethoxycarbonyl-R110 fluorogenic substrate) in T-47D cells; as to Caspase activity Ratio T-47D (24 hr): test concentration or dose not given here; as to Caspase activity Ratio T-47D (48 hr): test concentration or dose not given here
Type: cell-based, Human
Conditions: T-47D, 24 hr; ratio of net RFU to control

Row | SMILES | Caspase activity Ratio T-47D (24 hr)
1 | COc1cnc(Nc2nc(C)nc3ccccc23)nc1 [Example 141, (5-Methoxy-pyrimidin-2-yl)-(2-methyl-quinazolin-4-yl)-amine] | 1.2
2 | COc1ccc(N(C)c2nc(C)nc3ccc(N)cc23)cc1 [Example 110, (6-Amino-2-methyl-quinazolin-4-yl)-(4-methoxy-phenyl)-methyl-amine] | 8.8
3 | Cc1nc(N(C)c2ccc(N)cc2)c2ccccc2n1 [Example 101, (4-Amino-phenyl)-(2-methyl-quinazolin-4-yl)-methyl-amine] | 9.5
4 | COc1ccc(Nc2nc(C)nc3ccccc23)cn1 [Example 95, (2-Methyl-quinazolin-4-yl)-(6-methoxy-pyridin-3-yl)-amine] | 1.0
5 | COc1ccc(N(C)c2nc(N=[N+]=[N-])nc3ccccc23)cc1 [Example 121, (2-Azido-quinazolin-4-yl)-(4-methoxy-phenyl)-methyl-amine] | 8.8
6 | Cc1nc(N(C)c2ccc(N)cc2Br)c2ccccc2n1 [Example 104, (4-Amino-2-bromo-phenyl)-(2-methyl-quinazolin-4-yl)-methyl-amine] | 8.6
7 | Cc1nc(N(C)c2c(Br)cc(N)cc2Br)c2ccccc2n1 [Example 103, (4-Amino-2,6-dibromo-phenyl)-(2-methyl-quinazolin-4-yl)-methyl-amine] | 9.3
8 | COc1ccc(N(C)c2nc(C)nc3ccccc23)cc1F [Example 85, (3-Fluoro-4-methoxy-phenyl)-(2-methyl-quinazolin-4-yl)-methyl-amine] | 7.6
9 | CN(c1ccc(OC(F)(F)F)cc1)c1nc(Cl)nc2ccccc12 [Example 5, (2-Chloro-quinazolin-4-yl)-(4-trifluoromethoxy-phenyl)-methyl-amine] | 10.3
10 | CNc1nc(N(C)c2ccc(OC)cc2)c2ccccc2n1 [Example 123, (2-Methylamino-quinazolin-4-yl)-(4-methoxy-phenyl)-methyl-amine] | 8.2
11 | Cc1nc(N(C)c2ccc(N(C)C)cc2)c2ccccc2n1 [Example 105, (4-Dimethylamino-phenyl)-(2-methyl-quinazolin-4-yl)-methyl-amine] | 8.5
12 | COc1ccc(N(C)c2nc(CN(C)C)nc3ccccc23)cc1 [Example 77, (2-Dimethylaminomethyl-quinazolin-4-yl)-(4-methoxy-phenyl)-methyl-amine] | 5.7
13 | COc1ccc(Nc2nc(Cl)nc3cc(OC)c(OC)cc23)cc1 [Example 21, (2-Chloro-6,7-dimethoxyquinazolin-4-yl)-(4-methoxy-phenyl)-amine] | 1.0
14 | COc1ccc(N(C)c2nc(NC/C=C(\C)CCC=C(C)C)nc3cc(OC)c(OC)cc23)cc1 [Example 24, 6,7-Dimethoxy-N^2-(3,7-dimethyl-octa-2,6-dienyl)-N^4-(4-methoxy-phenyl)-N^4-methyl-quinazoline-2,4-diamine] | 1.0
15 | Cc1nc(Nc2ccncc2)c2ccccc2n1 [Example 135, (2-Methyl-quinazolin-4-yl)-(pyridin-4-yl)-amine] | 1.2
16 | COc1ccc(N(C)c2nc(C(=O)O)nc3ccccc23)cc1 [Example 118, 4-(N-(4-Methoxy-phenyl)-N-methylamino)quinazoline-2-carboxylic Acid] | 1.0

Row | SMILES | Caspase activity Ratio T-47D (24 hr)
17 | COc1ccc(N(C)c2nc(N(C)C)nc3ccccc23)cc1 [Example 122, (2-Dimethylamino-quinazolin-4-yl)-(4-methoxy-phenyl)-methyl-amine] | 8.2
18 | COc1ccc(N(C)c2nc(C)nc3ccc(N=[N+]=[N-])cc23)cc1 [Example 111, (6-Azido-2-methyl-quinazolin-4-yl)-(4-methoxy-phenyl)-methyl-amine] | 9.4
19 | Cc1nc(N(C)c2ccc(OC(C)C)cc2)c2ccccc2n1 [Example 86, (4-Isopropoxy-phenyl)-(2-methyl-quinazolin-4-yl)-methyl-amine] | 6.2
20 | COc1ccc(N(C)c2nc(NCCN3CCOCC3)nc3ccccc23)cc1 [Example 14, N^4-(4-Methoxy-phenyl)-N^4-methyl-N^2-(2-morpholin-4-yl-ethyl)-quinazoline-2,4-diamine] | 9.7
21 | Cc1nc(Nc2ccc(OC(C)C)cc2)c2ccccc2n1 [Example 80, (4-Isopropoxy-phenyl)-(2-methyl-quinazolin-4-yl)-amine] | 8.3
22 | C[C@H]1CC[C@@H](Nc2nc(Cl)nc3ccccc23)CC1 [Example 130, (2-Chloro-quinazolin-4-yl)-(cis-4-methylcyclohexyl)-amine] | 1.2
23 | CN(c1nc(Cl)nc2ccccc12)[C@H]1CC[C@H](C)CC1 [Example 133, (2-Chloro-quinazolin-4-yl)-(trans-4-methylcyclohexyl)-methyl-amine] | 1.2
24 | COc1ccc(N(C)c2nc(NCCc3c[nH]cn3)nc3ccccc23)cc1 [Example 46, N^2-[2-(1H-Imidazol-4-yl)-ethyl]-N^4-(4-methoxy-phenyl)-N^4-methyl-quinazoline-2,4-diamine] | 12.8
25 | COc1ccc(N(C)c2ccnc3ccccc23)cc1 [Example 66, (4-Methoxy-phenyl)-methyl-(quinolin-4-yl)-amine] | 7.2
26 | CCOC(=O)c1nc(N(C)c2ccc(OC)cc2)c2ccccc2n1 [Example 117, Ethyl 4-(N-(4-Methoxy-phenyl)-N-methylamino)quinazoline-2-carboxylate] | 7.4
27 | COc1c(Br)cc(N(C)c2nc(C)nc3ccc([N+](=O)[O-])cc23)cc1Br [Example 115, (3,5-Dibromo-4-methoxy-phenyl)-(2-methyl-6-nitro-quinazolin-4-yl)-methyl-amine] | 1.0
28 | COc1cccc(N(C)c2nc(Cl)nc3ccccc23)c1OC [Example 39, (2-Chloro-quinazolin-4-yl)-(2,3-dimethoxy-phenyl)-methyl-amine] | 4.5
29 | CN(c1ccccc1)c1nc(N(C)c2ccccc2)c2ccccc2n1 [Example 18, N^2,N^4-Dimethyl-N^2,N^4-diphenyl-quinazoline-2,4-diamine] | 1.0
30 | COc1ccc(N(C)c2nc(NCCN3CCOCC3)nc3cc(OC)c(OC)cc23)cc1 [Example 23, 6,7-Dimethoxy-N^4-(4-methoxy-phenyl)-N^4-methyl-N^2-(2-morpholin-4-yl-ethyl)-quinazoline-2,4-diamine] | 1.0
31 | COc1ccc(N(C)c2nc(C)nc3ccccc23)nc1 [Example 138, (5-Methoxy-pyridin-2-yl)-(2-methyl-quinazolin-4-yl)-methyl-amine] | 5.0

Same assay, conditions: T-47D, 48 hr; benzohydrazide analogs table

Row | SMILES | Ratio T-47D (48 hr)
32 | CSc1nc(N(C)NC(=O)c2cccs2)c2ccccc2n1 [N′-methyl-N′-(2-(methylthio)quinazolin-4-yl)thiophene-2-carbohydrazide] | 10.1
33 | CSc1nc(N(C)NC(=O)c2ccc(Cl)cc2)c2ccccc2n1 [4-chloro-N′-methyl-N′-(2-(methylthio)quinazolin-4-yl)benzohydrazide] | 14.4
34 | CN(NC(=O)c1ccccc1F)c1nc(C(F)(F)F)nc2ccccc12 [2-fluoro-N′-(2-(trifluoromethyl)quinazolin-4-yl)-N′-methylbenzohydrazide] | 13.7

Same assay, conditions: T-47D, 48 hr; ratio of net RFU to control

Row | SMILES | Caspase activity Ratio T-47D (48 hr)
35 | COc1ccc(N(C)c2nc(CN(C)C)nc3ccccc23)cc1 [Example 77, (2-Dimethylaminomethyl-quinazolin-4-yl)-(4-methoxy-phenyl)-methyl-amine] | 12.3
36 | COc1ccc(Nc2nc(Cl)nc3cc(OC)c(OC)cc23)cc1 [Example 21, (2-Chloro-6,7-dimethoxyquinazolin-4-yl)-(4-methoxy-phenyl)-amine] | 1.0
37 | COc1ccc(N(C)c2nc(NC/C=C(\C)CCC=C(C)C)nc3cc(OC)c(OC)cc23)cc1 [Example 24, 6,7-Dimethoxy-N^2-(3,7-dimethyl-octa-2,6-dienyl)-N^4-(4-methoxy-phenyl)-N^4-methyl-quinazoline-2,4-diamine] | 2.4
38 | COc1ccc(N(C)c2nc(N(C)c3ccc(OC)cc3)c3cc(Cl)ccc3n2)cc1 [Example 61, 6-Chloro-N^2N^4-bis-(4-methoxy-phenyl)-N^2,N^4-dimethyl-quinazoline-2,4-diamine] | 9.2
39 | COc1ccc(N(C)c2nc(Cl)nc3cccc(C)c23)cc1 [Example 58, (2-Chloro-5-methyl-quinazolin-4-yl)-(4-methoxy-phenyl)-methyl-amine] | 10.8
40 | COc1ccc(CN(C)c2nc(Cl)nc3ccccc23)cc1 [Example 26, (2-Chloro-quinazolin-4-yl)-(4-methoxy-benzyl)-methyl-amine] | 15.7
41 | COc1ccc(N(C)c2nc(NCCN3CCOCC3)nc3ccccc23)cc1 [Example 14, N^4-(4-Methoxy-phenyl)-N^4-methyl-N^2-(2-morpholin-4-yl-ethyl)-quinazoline-2,4-diamine] | 12.3
42 | COc1ccc(N(C)c2nc(OC(C)C)nc3cccc(Cl)c23)cc1 [Example 64, (5-Chloro-2-isopropoxy-quinazolin-4-yl)-(4-methoxy-phenyl)-methyl-amine] | 1
43 | COc1ccc(N(C)c2nc(NCCc3c[nH]cn3)nc3ccccc23)cc1 [Example 46, N^2-[2-(1H-Imidazol-4-yl)-ethyl]-N^4-(4-methoxy-phenyl)-N^4-methyl-quinazoline-2,4-diamine] | 9.4
44 | COc1ccc(N(C)c2ccnc3ccccc23)cc1 [Example 66, (4-Methoxy-phenyl)-methyl-(quinolin-4-yl)-amine] | 12.5
45 | COc1ccc(N(C)c2nc(Cl)nc3ccc(C)cc23)cc1 [Example 56, (2-Chloro-6-methyl-quinazolin-4-yl)-(4-methoxy-phenyl)-methyl-amine] | 4.9
46 | COc1ccc(N(C)c2nc(Cl)nc3c(C)cccc23)cc1 [Example 59, (2-Chloro-8-methyl-quinazolin-4-yl)-(4-methoxy-phenyl)-methyl-amine] | 7.1
47 | COc1ccc(N(c2nc(Cl)nc3ccccc23)C2CCCC2)cc1 [Example 45, (2-Chloro-quinazolin-4-yl)-cyclopentyl-(4-methoxy-phenyl)-amine] | 1.0
48 | COc1ccc(N(C)c2nc(Cl)nc3cc(Cl)ccc23)cc1 [Example 62, (2,7-Dichloro-quinazolin-4-yl)-(4-methoxy-phenyl)-methyl-amine] | 12.7
49 | CN(c1ccccc1)c1nc(N(C)c2ccccc2)c2ccccc2n1 [Example 18, N^2,N^4-Dimethyl-N^2,N^4-diphenyl-quinazoline-2,4-diamine] | 1.0
50 | COc1ccc(N(C)c2nc(NCCN3CCOCC3)nc3cc(OC)c(OC)cc23)cc1 [Example 23, 6,7-Dimethoxy-N^4-(4-methoxy-phenyl)-N^4-methyl-N^2-(2-morpholin-4-yl-ethyl)-quinazoline-2,4-diamine] | 1.0
51 | COc1ccc(N(C)c2nc(Cl)nc3c(Cl)cccc23)cc1 [Example 89, (2,8-Dichloro-quinazolin-4-yl)-(4-methoxy-phenyl)-methyl-amine] | 7.8
52 | CN(c1ccc(O)cc1)c1nc(Cl)nc2ccccc12 [Example 54, (2-Chloro-quinazolin-4-yl)-(4-hydroxyphenyl)-methylamine] | 12.5
53 | COc1ccc(N(C)c2nc(-c3ccccc3)nc3ccccc23)cc1 [Example 83, (4-Methoxy-phenyl)-(2-phenyl-quinazolin-4-yl)-methyl-amine] | 10.8
